Experimental findings from patent US7943629B2, “Sulphimides as protein kinase inhibitors” (Bayer Schering Pharma AG, priority 2006, dated 2011) are described below.

The target in one assay is T1, Aurora-C (Homo sapiens, UniProt Q9UQB9).
T1 construct: made in house; host or cells: transiently transfected HEK293 cells
T1 sequence (Q9UQB9 1-309): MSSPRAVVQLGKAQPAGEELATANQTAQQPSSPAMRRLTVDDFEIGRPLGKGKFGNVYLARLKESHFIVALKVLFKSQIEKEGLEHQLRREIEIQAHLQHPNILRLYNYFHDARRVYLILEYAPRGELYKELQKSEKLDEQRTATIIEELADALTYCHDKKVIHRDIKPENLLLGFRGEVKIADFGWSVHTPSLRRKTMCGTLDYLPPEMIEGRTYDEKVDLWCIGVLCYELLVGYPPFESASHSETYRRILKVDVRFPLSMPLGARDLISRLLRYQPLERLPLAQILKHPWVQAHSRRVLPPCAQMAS
Put plainly: Aurora-C kinase assay. It counts as biochemical. The following applies: 3 μM ATP, 22° C., 90 min.

A further assay has as its target T2, CDK1/CycB (Homo sapiens, UniProt P06493).
T2 construct: GST; purchased ProQinase GmbH, Freiburg; host or cells: baculovirus-infected insect cells (Sf9)
Put plainly: CDK1/CycB kinase assay. The format is biochemical. The following applies: 0.5 μM ATP, histone IIIS, 22° C., 10 min.

The next assay addresses T3, KDR (VEGFR2) (Homo sapiens, UniProt P35968).
T3 construct: made in house; host or cells: E. coli
Put plainly: KDR kinase assay. It counts as biochemical. The settings on record: 10 μM ATP, 22° C., 45 min, HTRF. A general note: In TR-FRET formats the signal depends on donor and acceptor labels being close together.

The target of a further assay is T4, CDK2/CycE (Homo sapiens, UniProt P24941).
T4 construct: GST; purchased ProQinase GmbH, Freiburg; host or cells: baculovirus-infected insect cells (Sf9)
Put plainly: CDK2/CycE kinase assay. The format is biochemical. The following applies: 0.5 μM ATP, histone IIIS, 22° C., 10 min.

The test system of a further assay is MCF7 breast tumour cells. Put plainly: MCF7 proliferation assay. It counts as cell-based, human. The following applies: Homo sapiens, MCF7, 96 h; 4 days incubation, crystal violet staining.

Some results are limits rather than exact numbers.

T2 sequence (P06493 whole entry): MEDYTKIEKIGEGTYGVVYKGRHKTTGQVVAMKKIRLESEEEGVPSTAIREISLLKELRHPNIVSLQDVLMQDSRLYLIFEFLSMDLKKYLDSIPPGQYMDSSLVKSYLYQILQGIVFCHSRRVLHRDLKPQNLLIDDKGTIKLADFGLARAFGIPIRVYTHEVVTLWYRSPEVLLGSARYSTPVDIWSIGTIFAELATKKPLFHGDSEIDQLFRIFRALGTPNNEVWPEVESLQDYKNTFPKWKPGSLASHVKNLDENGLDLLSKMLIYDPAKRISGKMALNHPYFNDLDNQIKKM
T2 sequence (P14635 whole entry partner): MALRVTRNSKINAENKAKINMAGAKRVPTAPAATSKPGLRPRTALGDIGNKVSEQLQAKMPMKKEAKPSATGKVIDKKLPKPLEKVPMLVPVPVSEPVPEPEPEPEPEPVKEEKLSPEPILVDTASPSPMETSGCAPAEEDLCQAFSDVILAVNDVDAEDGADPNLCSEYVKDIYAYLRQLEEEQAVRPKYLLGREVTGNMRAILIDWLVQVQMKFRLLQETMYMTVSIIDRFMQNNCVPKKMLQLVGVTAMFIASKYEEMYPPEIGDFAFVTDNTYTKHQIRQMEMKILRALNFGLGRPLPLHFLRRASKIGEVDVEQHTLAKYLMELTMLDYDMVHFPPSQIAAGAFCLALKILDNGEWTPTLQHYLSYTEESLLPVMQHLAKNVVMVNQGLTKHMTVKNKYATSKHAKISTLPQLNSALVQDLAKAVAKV
T3 sequence (P35968 20-1356, species assumed): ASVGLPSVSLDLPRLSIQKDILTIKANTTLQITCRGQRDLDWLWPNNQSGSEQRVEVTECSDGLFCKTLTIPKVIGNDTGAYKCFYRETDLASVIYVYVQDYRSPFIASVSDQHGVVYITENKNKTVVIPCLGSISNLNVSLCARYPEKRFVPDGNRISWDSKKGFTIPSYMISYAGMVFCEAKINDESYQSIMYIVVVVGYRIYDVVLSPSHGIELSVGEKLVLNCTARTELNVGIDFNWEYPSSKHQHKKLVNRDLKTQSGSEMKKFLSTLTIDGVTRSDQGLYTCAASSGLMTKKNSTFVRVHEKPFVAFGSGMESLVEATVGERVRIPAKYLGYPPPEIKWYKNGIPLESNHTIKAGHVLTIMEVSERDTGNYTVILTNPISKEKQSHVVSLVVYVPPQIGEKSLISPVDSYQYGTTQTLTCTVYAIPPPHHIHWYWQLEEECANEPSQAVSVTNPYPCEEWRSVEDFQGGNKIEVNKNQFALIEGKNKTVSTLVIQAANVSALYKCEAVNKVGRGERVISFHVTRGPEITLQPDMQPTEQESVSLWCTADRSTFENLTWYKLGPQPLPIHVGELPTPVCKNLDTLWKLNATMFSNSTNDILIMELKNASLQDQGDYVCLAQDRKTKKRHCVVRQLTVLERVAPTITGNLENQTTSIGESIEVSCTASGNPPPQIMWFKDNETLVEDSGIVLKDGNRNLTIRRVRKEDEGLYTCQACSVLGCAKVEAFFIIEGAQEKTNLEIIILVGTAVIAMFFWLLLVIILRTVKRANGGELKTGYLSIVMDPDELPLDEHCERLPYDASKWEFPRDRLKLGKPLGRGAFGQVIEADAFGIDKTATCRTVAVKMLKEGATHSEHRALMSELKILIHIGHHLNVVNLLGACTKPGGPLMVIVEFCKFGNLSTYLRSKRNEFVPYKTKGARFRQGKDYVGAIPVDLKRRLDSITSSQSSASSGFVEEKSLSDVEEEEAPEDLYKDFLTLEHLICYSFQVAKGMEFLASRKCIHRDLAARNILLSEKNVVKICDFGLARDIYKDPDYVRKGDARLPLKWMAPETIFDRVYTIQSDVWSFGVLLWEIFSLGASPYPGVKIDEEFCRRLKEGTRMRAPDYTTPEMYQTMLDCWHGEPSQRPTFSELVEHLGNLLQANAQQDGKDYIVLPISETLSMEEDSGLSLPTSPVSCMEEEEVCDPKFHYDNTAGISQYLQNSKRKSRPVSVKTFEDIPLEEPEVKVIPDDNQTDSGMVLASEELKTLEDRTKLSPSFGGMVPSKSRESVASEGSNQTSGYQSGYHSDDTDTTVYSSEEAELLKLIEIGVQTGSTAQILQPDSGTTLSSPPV

In the case of `Cc1ccc(S(=O)(=O)N=S(C)c2ccc(Nc3ncc(Br)c(NC(C)C)n3)cc2)cc1` (racemic) [Example 1, (RS)—S-(4-{[5-Bromo-4-(isopropylamino)pyrimidin-2-yl]amino}phenyl)-S-methyl-N-(tolylsulphonyl)sulphimide], the IC50 (usually the concentration at which inhibition is half-maximal) against Aurora-C was 240 nM; against CDK1/CycB, > 1000 nM; on KDR (VEGFR2), 37 nM; on CDK2/CycE it was 900 nM; in the assay with MCF7 breast tumour cells it was 2200 nM.
